Experimental data reported in US6893664B1, “Particle delivery techniques” (Powderject Research Limited, priority 1996, dated 2005).

Assays:
Format in all cases: physicochemical
[1] = Envelope density by GeoPyc Model 1360 Envelope Density Analyzer; details: for change of envelope density by compression, milling, sieving: relative to both the freeze-dried and the sieved preparations
Procedure: (§1) Trehalose 45H3830 (Sigma) and mannitol K91698380-703 (Merck) were either sieved, or freeze dried, compacted, ground and then sieved. A range of the resulting preparations were then analyzed for particle size and density measurements.
(§2) Portions of each sugar excipient were sieved to obtain preparations having reduced particle sizes. Sieving was carried out using stainless steel sieves for two hours at 3 mm amplitude using three sieve sizes (75 μm, 53 μm and 38 μm) without additional processing.
(§3) Alternatively, portions of each sugar excipient were processed using the methods of the invention as follows. 40 g of each of the sugars was dissolved in water, flash frozen, and then freeze dried over night. Samples of each freeze dried preparation were retained, and the remainder compacted in a 13 mm compression die (15,000 lbs/inch^2 for 45 seconds) into discs. The mannitol discs were ground using mortar and pestle, and then sieved as described above at 3 mm amplitude, using three sieve sizes. The trehalose discs were first ground in a vibratory ball mill (Retsch mill), then ground by mortar and pestle and sieved as above.
(§4) Samples from each of the above-described excipient preparations were then analyzed for absolute and envelope density. Absolute density was determined using helium pycnometry, and envelope density was determined using a GeoPyc™ Model 1360 Envelope Density Analyzer (Micromeritics Instrument Corp.).

[2] = Absolute density by helium pycnometry
Procedure: as §1, §2, §3, §4

[3] = Densification of excipients, comparison of compacted particles with like weights of non-densified starting materials; details: compacted at 10,000 lbs/in^2 for 30 seconds, ground, sieved > about 50 μm
Procedure: Finely ground powders of pharmaceutical grade mannitol and lactose were obtained and reprocessed using the method of the invention. Particularly, approximately 30 to 50 mg of mannitol or lactose were compacted under pressure using a Carver Laboratory Pellet Press (Model 3620, available from Carver, Inc., Wabash, Ind.). The pressure of compaction was 10,000 lbs/in^2 which was applied for approximately 30 seconds. The resulting compacted pellets were ground using mortar and pestle until visually broken up, and then sieved to select for particles having a size greater than about 50 μm using the methods described in Example 3.

[4] = pretreatment: Freeze Dried, Compressed, Milled, Sieved

Q: Which “Density Envelope” value ([1]; pretreatment: Freeze Dried) does the source give for `OC[C@@H](O)[C@@H](O)[C@H](O)[C@H](O)CO` [Mannitol] here?
A: The value was 0.3 g/mL.

Q: What about the “Density Envelope” value [1, 4] of the same molecule?
A: Its value is 0.8 g/mL.

Q: What about the “Density Envelope” value ([1]; pretreatment: Sieved) of the same molecule?
A: The value was 0.5 g/mL.

Q: And the “change of envelope density by compression, milling, sieving” value [1]?
A: Its value is “significant increase in envelope density”.

Q: What about the “Density Absolute” value ([2]; pretreatment: Freeze Dried) of the same molecule?
A: The value was 1.5 g/mL.

Q: And the “Density Absolute” value [2, 4]?
A: The value was 1.5 g/mL.

Q: And the “Density Absolute” value ([2]; pretreatment: Sieved)?
A: Its value is 1.5 g/mL.

Q: What about the “size of compacted particles versus like weights of non-densified starting materials” value [3] of the same molecule?
A: Its value is “a significant size reduction was observed”.

Q: Which results are given for `OC[C@H]1O[C@H](O[C@H]2O[C@H](CO)[C@@H](O)[C@H](O)[C@H]2O)[C@H](O)[C@@H](O)[C@@H]1O` [Trehalose]?
A: Density Envelope ([1]; pretreatment: Freeze Dried): 0.3 g/mL; Density Envelope [1, 4]: 0.8 g/mL; Density Envelope ([1]; pretreatment: Sieved): 0.5 g/mL; change of envelope density by compression, milling, sieving [1]: significant increase in envelope density; Density Absolute ([2]; pretreatment: Freeze Dried): 1.5 g/mL; Density Absolute [2, 4]: 1.5 g/mL; Density Absolute ([2]; pretreatment: Sieved): 1.5 g/mL

Q: For `OC[C@H]1O[C@@H](O[C@H]2[C@H](O)[C@@H](O)C(O)O[C@@H]2CO)[C@H](O)[C@@H](O)[C@H]1O` (stereo partly shown) [lactose], which “size of compacted particles versus like weights of non-densified starting materials” value [3] is on record?
A: Its value is “a significant size reduction was observed”.
